Results: US11813306B2, “Cyclic tetramer compounds as proprotein convertase subtilisin/kexin type 9 (PCSK9) inhibitors for the treatment of metabolic disorders” (NOVARTIS AG, priority 2018, dated 2023)

Target: human PCSK9 (Homo sapiens, UniProt Q8NBP7)
Test: PCSK9 ligand binding assay (TR-FRET): interference with binding of human PCSK9 to human LDLR
Conditions: for IC50: Human PCSK9 Alexa Fluor 647 / Human LDLR extracellular domain-Europium Kryptate; for Max % inhibition: efficacy (Amax), 100% = 1 uM unlabeled human PCSK9, 0% = DMSO
Summary of the method: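 Read-out was TR-FRET ratio (665 nm over 615 nm, 330 nm excitation) between Alexa Fluor 647-human PCSK9 (16 nM added) and Europium Kryptate-human LDLR ectodomain (4 nM added). Compound and PCSK9 were mixed 30 min before LDLR, then incubated 2 h. Inhibition was normalised to DMSO and unlabelled-PCSK9 controls, giving IC50 and Amax.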

Sequence of human PCSK9 (Q8NBP7 153-692): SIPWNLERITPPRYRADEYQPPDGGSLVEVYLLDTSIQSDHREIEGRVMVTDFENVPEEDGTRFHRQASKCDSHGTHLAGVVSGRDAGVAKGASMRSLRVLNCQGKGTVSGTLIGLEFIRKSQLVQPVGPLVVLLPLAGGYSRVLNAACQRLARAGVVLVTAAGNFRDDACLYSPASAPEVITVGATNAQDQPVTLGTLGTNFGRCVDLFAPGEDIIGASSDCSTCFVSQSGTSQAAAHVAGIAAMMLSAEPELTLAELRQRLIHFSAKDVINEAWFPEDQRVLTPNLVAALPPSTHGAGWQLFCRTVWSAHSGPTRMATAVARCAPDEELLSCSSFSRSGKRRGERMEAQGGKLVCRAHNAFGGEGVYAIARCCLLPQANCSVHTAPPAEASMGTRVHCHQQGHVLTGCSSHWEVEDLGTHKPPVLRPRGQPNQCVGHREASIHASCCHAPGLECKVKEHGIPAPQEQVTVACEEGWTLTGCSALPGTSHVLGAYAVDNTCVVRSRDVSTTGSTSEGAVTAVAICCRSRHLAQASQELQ
Sequence of human PCSK9 (Q8NBP7 31-152 partner limits assumed): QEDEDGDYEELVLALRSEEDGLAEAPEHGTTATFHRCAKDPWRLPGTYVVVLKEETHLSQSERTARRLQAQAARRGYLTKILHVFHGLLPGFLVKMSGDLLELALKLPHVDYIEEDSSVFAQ

SMILES	IC50 [nM]	Max % inhibition [%]
C[C@H]1C(=O)N[C@@H](CO)C(=O)N[C@@]2(Cc3ccc(Cl)cc3)CCCN(C2)C(=O)[C@H]([C@@H]2CCc3ccccc32)CC(=O)N1Cc1ccc(Cl)cc1Oc1ccc(-c2cnc(CN(C)C)n2C)cc1.Cl [Compound 84, (3S, 7S, 10S, 13R)-6-(4-chloro-2-(4-(2-((dimethylamino)methyl)-1-methyl-1H-imidazol-5-yl)phenoxy)benzyl)-13-(4-chlorobenzyl)-3-((S)-2,3-dihydro-1H-inden-1-yl)-10-(hydroxymethyl)-7-methyl-1,6,9,12-tetraazabicyclo[11.3.1]heptadecane-2,5,8,11-tetraone]	1.68	101.9
COC[C@@H]1NC(=O)[C@H](C)N(Cc2ncc(Cl)cc2Oc2ccc(-c3cnc(CN(C)C)n3C)nc2)C(=O)C[C@@H](Cc2ccccc2)C(=O)N2CCC[C@@](Cc3ccc(Cl)cc3)(C2)N(C)C1=O [Compound 85]	1.41	101.7
C[C@H]1C(=O)N[C@@H](CO)C(=O)N[C@@]2(Cc3ccc(Cl)cc3)CCCN(C2)C(=O)[C@H](Cc2ccccc2)CC(=O)N1Cc1c(F)cc(Cl)cc1Oc1ccc(-c2cnc(CN(C)C)n2C)cc1F [Compound 87, (3R, 7S, 10S, 13R)-3-benzyl-6-(4-chloro-2-(4-(2-((dimethylamino)methyl)-1-methyl-1H-imidazol-5-yl)-2-fluorophenoxy)-6-fluorobenzyl)-13-(4-chlorobenzyl)-10-(hydroxymethyl)-7-methyl-1,6,9,12-tetraazabicyclo[11.3.1]heptadecane-2,5,8,11-tetraone]	0.58	111.7
CCn1c(-c2ccc(Oc3cc(Cl)cc(F)c3CN3C(=O)C[C@@H](CC(F)(F)F)C(=O)N4CCC[C@@](Cc5ccc(Cl)cc5)(C4)NC(=O)[C@H](CO)NC(=O)[C@@H]3C)cc2)cnc1CN(C)C [Compound 88, (3S, 7S, 10S, 13R)-6-(4-chloro-2-(4-(2-((dimethylamino)methyl)-1-ethyl-1H-imidazol-5-yl)phenoxy)-6-fluorobenzyl)-13-(4-chlorobenzyl)-10-(hydroxymethyl)-7-methyl-3-(2,2,2-trifluoroethyl)-1,6,9,12-tetraazabicyclo[11.3.1]heptadecane-2,5,8,11-tetraone]	3.16	99.0
C[C@H]1C(=O)N[C@@H](CO)C(=O)N(C)[C@H](Cc2ccc(Cl)cc2)CNC(=O)[C@H](Cc2ccccc2)CC(=O)N1Cc1ccc(Cl)cc1Oc1ccc(-c2cnc(CN3CCCC3)n2C)cc1.Cl [Compound 89, (2S, 5S, 8R, 12R)-12-benzyl-1-(4-chloro-2-(4-(1-methyl-2-(pyrrolidin-1-ylmethyl)-1H-imidazol-5-yl)phenoxy)benzyl)-8-(4-chlorobenzyl)-5-(hydroxymethyl)-2,7-dimethyl-1,4,7,10-tetraazacyclotetradecane-3,6,11,14-tetraone]	1.51	104.5
C[C@H]1C(=O)N[C@@H](CO)C(=O)N[C@@]2(Cc3ccc(Cl)cc3)CCCN(C2)C(=O)[C@H]([C@@H]2CCc3ccccc32)CC(=O)N1Cc1ccc(C(F)(F)F)cc1Oc1ccc(-c2cnc(CN(C)C)n2C)cc1 [Compound 90]	1.71	99.2
C[C@H]1C(=O)N[C@@H](CO)C(=O)N(C)[C@H](Cc2ccc(Cl)cc2)CN(C)C(=O)[C@H]([C@H]2CCc3ccccc32)CC(=O)N1Cc1ccc(Cl)cc1Oc1ccc(-c2cnc(CN(C)C)n2C)cc1.Cl [Compound 91, (2S, 5S, 8R, 12S)-1-(4-chloro-2-(4-(2-((dimethylamino)methyl)-1-methyl-1H-imidazol-5-yl)phenoxy)benzyl)-8-(4-chlorobenzyl)-12-((R)-2,3-dihydro-1H-inden-1-yl)-5-(hydroxymethyl)-2,7,10-trimethyl-1,4,7,10-tetraazacyclotetradecane-3,6,11,14-tetraone]	1.83	104.8
